Measurements from patent US20250215029A1 (Recludix Pharma, Inc., priority 2022, published 2025).
pIC50: −log10 of the molar value.

target: T1, pY705-STAT3 in PBMC (Homo sapiens, UniProt P40763); assay: MSD-pSTAT-PBMC Assay (pSTAT3, IL-6 stimulated); assay type: cell-based; settings: PBMC, compound 3 hrs, then 10 ng/mL IL-6 for 10 min; Table 115; read-out: STAT3
T1 construct: Cryopreserved Peripheral Blood Mononuclear Cells (PBMC) are from AllCells; host or cells: cryopreserved PBMC
Outline: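 Human PBMCs were pretreated with compound for 3 h, then stimulated with 10 ng/mL IL-6 for 10 min. Lysate pY705-STAT3 was measured by MSD sandwich immunoassay (anti-STAT3 capture) and corrected for unstimulated background. Signal was normalized to DMSO, and IC50 came from variable-slope regression.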

T1 sequence (P40763 whole entry): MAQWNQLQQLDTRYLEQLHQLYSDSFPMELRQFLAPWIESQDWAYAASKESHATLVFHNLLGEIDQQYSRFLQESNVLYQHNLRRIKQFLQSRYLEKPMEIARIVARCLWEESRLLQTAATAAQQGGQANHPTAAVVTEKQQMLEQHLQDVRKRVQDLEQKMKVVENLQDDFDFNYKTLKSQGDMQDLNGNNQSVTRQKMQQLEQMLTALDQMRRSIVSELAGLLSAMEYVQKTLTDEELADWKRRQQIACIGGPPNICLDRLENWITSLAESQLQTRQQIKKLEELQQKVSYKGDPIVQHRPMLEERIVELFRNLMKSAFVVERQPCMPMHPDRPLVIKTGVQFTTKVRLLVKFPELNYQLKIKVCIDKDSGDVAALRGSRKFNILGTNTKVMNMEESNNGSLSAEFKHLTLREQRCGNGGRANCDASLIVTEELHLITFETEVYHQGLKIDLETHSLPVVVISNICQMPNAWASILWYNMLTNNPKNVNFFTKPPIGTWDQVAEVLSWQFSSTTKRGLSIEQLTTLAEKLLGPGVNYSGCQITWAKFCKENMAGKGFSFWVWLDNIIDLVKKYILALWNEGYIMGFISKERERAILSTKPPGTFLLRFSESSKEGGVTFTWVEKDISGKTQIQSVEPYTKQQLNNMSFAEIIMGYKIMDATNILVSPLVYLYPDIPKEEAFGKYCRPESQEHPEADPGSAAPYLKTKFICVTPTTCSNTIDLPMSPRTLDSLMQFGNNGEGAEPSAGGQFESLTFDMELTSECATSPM

Row | Compound | pIC50
1 | CCCOC(=O)[C@H](C)NP(=O)(Cc1ccc2sc(C(=O)N[C@H]3CC(C)C[C@H]4CC[C@@H](C(=O)N5CC(c6cnccc6C)C5)N4C3=O)cc2c1)Oc1ccccc1 (stereo partly drawn) [Compound 251, propyl (((2-(((3S,6S,9aR)-8-methyl-3-(3-(4-methylpyridin-3-yl)azetidine-1-carbonyl)-5-oxooctahydro-1H-pyrrolo[1,2-a]azepin-6-yl)carbamoyl)benzo [b]thiophen-5-yl)methyl)(phenoxy)phosphoryl)-L-alaninate] | > 7.00
2 | CCCOC(=O)[C@H](C)NP(=O)(Oc1ccccc1)[C@@H](F)c1ccc2sc(C(=O)N[C@H]3CCC[C@H]4CC[C@@H](C(=O)N5CC(c6cncc(F)c6NC)C5)N4C3=O)cc2c1 (stereo partly drawn) [Compound 1026, propyl (((R)-fluoro(2-(((3S,6S,9aS)-3-(3-(5-fluoro-4-(methylamino)pyridin-3-yl)azetidine-1-carbonyl)-5-oxooctahydro-1H-pyrrolo[1,2-a]azepin-6-yl)carbamoyl)benzo [b]thiophen-5-yl)methyl)(phenoxy)phosphoryl)-L-alaninate] | > 7.00
3 | CCCOC(=O)[C@H](C)NP(=O)(Cc1ccc2sc(C(=O)N[C@H]3CCC[C@H]4CC[C@@H](C(=O)N5CC(c6cnccc6N6CCOCC6)C5)N4C3=O)cc2c1)Oc1ccccc1 (stereo partly drawn) [Compound 1038, propyl (((2-(((3S,6S,9aS)-3-(3-(4-morpholinopyridin-3-yl)azetidine-1-carbonyl)-5-oxooctahydro-1H-pyrrolo[1,2-a]azepin-6-yl)carbamoyl)benzo [b]thiophen-5-yl)methyl)(phenoxy)phosphoryl)-L-alaninate] | > 7.00
4 | Cc1ccncc1C1CN(C(=O)[C@@H]2CC[C@@H]3CCCC[C@H](NC(=O)c4cc5cc(CP(=O)(N[C@@H](C)C(=O)OCC(C)C)Oc6ccccc6)ccc5s4)C(=O)N32)C1 (stereo partly drawn) [Compound 282, isobutyl (((2-(((3S,6S,10aS)-3-(3-(4-methylpyridin-3-yl)azetidine-1-carbonyl)-5-oxodecahydropyrrolo [1,2-a]azocin-6-yl)carbamoyl)benzo [b]thiophen-5-yl)methyl)(phenoxy)phosphoryl)-L-alaninate] | > 7.00
5 | CCCOC(=O)[C@H](C)NP(=O)(Cc1ccc2sc(C(=O)N[C@H]3C[C@@H](C)C[C@H]4CC[C@@H](C(=O)N5CC(c6cnccc6N(C)C)C5)N4C3=O)cc2c1)Oc1ccccc1 (stereo partly drawn) [Compound 1021, propyl (((2-(((3S,6S,8R,9aR)-3-(3-(4-(dimethylamino)pyridin-3-yl)azetidine-1-carbonyl)-8-methyl-5-oxooctahydro-1H-pyrrolo[1,2-a]azepin-6-yl)carbamoyl)benzo [b]thiophen-5-yl)methyl)(phenoxy)phosphoryl)-L-alaninate] | > 7.00
6 | CCCOC(=O)[C@H](C)NP(=O)(Cc1ccc2sc(C(=O)N[C@H]3CCC[C@H]4CC[C@@H](C(=O)N5CC(c6nccc(C#N)n6)C5)N4C3=O)cc2c1)Oc1ccccc1 (stereo partly drawn) [Compound 290, propyl (((2-(((3S,6S,9aS)-3-(3-(4-cyanopyrimidin-2-yl)azetidine-1-carbonyl)-5-oxooctahydro-1H-pyrrolo[1,2-a]azepin-6-yl)carbamoyl)benzo [b]thiophen-5-yl)methyl)(phenoxy)phosphoryl)-L-alaninate] | 6.00 to 7.00
7 | CCCOC(=O)[C@H](C)N[P@](=O)(Oc1ccccc1)[C@H](F)c1ccc2sc(C(=O)N[C@H]3CCC[C@H]4CC[C@@H](C(=O)N5CC(c6cnccc6N6CCOCC6)C5)N4C3=O)cc2c1 (single isomer, unassigned) [Compound 1044] | > 7.00
8 | Cc1ccncc1C1CN(C(=O)[C@@H]2CC[C@@H]3CCC[C@H](NC(=O)c4cc5cc(C(F)(F)P(=O)(N[C@@H](C)C(=O)OCc6ccccc6)Oc6ccccc6)ccc5s4)C(=O)N32)C1 (stereo partly drawn) [Compound 297, benzyl ((difluoro(2-(((3S,6S,9aS)-3-(3-(4-methylpyridin-3-yl)azetidine-1-carbonyl)-5-oxooctahydro-1H-pyrrolo[1,2-a]azepin-6-yl)carbamoyl)benzo [b]thiophen-5-yl)methyl)(phenoxy)phosphoryl)-L-alaninate] | 6.00 to 7.00
9 | CCCOC(=O)[C@H](C)N[P@@](=O)(Oc1ccccc1)[C@@H](F)c1ccc2sc(C(=O)N[C@H]3CCC[C@H]4CC[C@@H](C(=O)N5CC(c6cnccc6OC)C5)N4C3=O)cc2c1 (single isomer, unassigned) [Compound 1039] | > 7.00
10 | CCCOC(=O)[C@H](C)NP(=O)(Cc1ccc2sc(C(=O)N[C@H]3CCC[C@H]4CC[C@@H](C(=O)N5CC(c6cncnc6C)C5)N4C3=O)cc2c1)Oc1ccccc1 (stereo partly drawn) [Compound 260, propyl (((2-(((3S,6S,9aS)-3-(3-(4-methylpyrimidin-5-yl)azetidine-1-carbonyl)-5-oxooctahydro-1H-pyrrolo[1,2-a]azepin-6-yl)carbamoyl)benzo [b]thiophen-5-yl)methyl)(phenoxy)phosphoryl)-L-alaninate] | 5.52 to 6.00
11 | Cc1ccncc1C1CN(C(=O)[C@@H]2CC[C@@H]3CCC[C@H](NC(=O)c4cc5cc(CP(=O)(N[C@@H](C)C(=O)OC(C)C)Oc6ccccc6)ccc5s4)C(=O)N32)C1 (stereo partly drawn) [Compound 298, isopropyl (((2-(((3S,6S,9aS)-3-(3-(4-methylpyridin-3-yl)azetidine-1-carbonyl)-5-oxooctahydro-1H-pyrrolo[1,2-a]azepin-6-yl)carbamoyl)benzo [b]thiophen-5-yl)methyl)(phenoxy)phosphoryl)-L-alaninate] | 6.00 to 7.00
12 | COc1ccncc1C1CN(C(=O)[C@@H]2CC[C@@H]3CCC[C@H](NC(=O)c4cc5cc([C@H](F)[P@](=O)(N[C@@H](C)C(=O)OCC(C)(C)C)Oc6ccccc6)ccc5s4)C(=O)N32)C1 (single isomer, unassigned) [Compound 960] | 6.00 to 7.00
13 | COc1ccncc1C1CN(C(=O)[C@@H]2CC[C@@H]3CCC[C@H](NC(=O)c4cc5cc([C@@H](F)[P@](=O)(N[C@@H](C)C(=O)OCC(C)(C)C)Oc6ccccc6)ccc5s4)C(=O)N32)C1 (single isomer, unassigned) [Compound 1056] | > 7.00
14 | COCCOCC(=O)SCCOP(=O)(OCCSC(=O)COCCOC)C(F)(F)c1ccc2sc(C(=O)N[C@H]3CCC[C@H]4CC[C@@H](C(=O)N5CC(c6cccnc6)C5)N4C3=O)cc2c1 [Compound 1102, S,S′-((((difluoro(2-(((3S,6S,9aS)-5-oxo-3-(3-(pyridin-3-yl)azetidine-1-carbonyl)octahydro-1H-pyrrolo[1,2-a]azepin-6-yl)carbamoyl)benzo [b]thiophen-5-yl)methyl)phosphoryl)bis(oxy))bis(ethane-2,1-diyl)) bis(2-(2-methoxyethoxy) ethanethioate)] | > 7.00
15 | CCCOC(=O)[C@H](C)NP(=O)(Cc1ccc2sc(C(=O)N[C@H]3CCC[C@H]4CC[C@@H](C(=O)N[C@H]5CN(C(C)=O)C[C@@H]5F)N4C3=O)cc2c1)Oc1ccccc1 (stereo partly drawn) [Compound 308, propyl (((2-(((3S,6S,9aS)-3-(((3S,4S)-1-acetyl-4-fluoropyrrolidin-3-yl)carbamoyl)-5-oxooctahydro-1H-pyrrolo[1,2-a]azepin-6-yl)carbamoyl)benzo [b]thiophen-5-yl)methyl)(phenoxy)phosphoryl)-L-alaninate] | < 5.52
16 | CCCOC(=O)[C@H](C)NP(=O)(Oc1ccccc1)C(F)c1ccc2sc(C(=O)N[C@H]3CCCC[C@H]4CC[C@@H](C(=O)N5CC(NCCOC)(c6ccccn6)C5)N4C3=O)cc2c1 (stereo partly drawn) [Compound 987, propyl ((fluoro(2-(((3S,6S,10aS)-3-(3-((2-methoxyethyl)amino)-3-(pyridin-2-yl)azetidine-1-carbonyl)-5-oxodecahydropyrrolo [1,2-a]azocin-6-yl)carbamoyl)benzo [b]thiophen-5-yl)methyl)(phenoxy)phosphoryl)-L-alaninate] | 6.00 to 7.00
17 | CCCOC(=O)[C@H](C)N[P@](=O)(Oc1ccccc1)[C@H](F)c1ccc2sc(C(=O)N[C@H]3CCC[C@H]4CC[C@@H](C(=O)N5CC(c6cnccc6F)C5)N4C3=O)cc2c1 (single isomer, unassigned) [Compound 997] | > 7.00
18 | COC1(c2cnccc2C)CN(C(=O)[C@@H]2CC[C@@H]3CCC[C@H](NC(=O)c4cc5cc(C(F)(F)P(=O)(OCCSC(=O)CC(C)C)OCCSC(=O)CC(C)C)ccc5s4)C(=O)N32)C1 [Compound 963, S,S′-((((difluoro(2-(((3S,6S,9aS)-3-(3-methoxy-3-(4-methylpyridin-3-yl)azetidine-1-carbonyl)-5-oxooctahydro-1H-pyrrolo[1,2-a]azepin-6-yl)carbamoyl)benzo [b]thiophen-5-yl)methyl)phosphoryl)bis(oxy))bis(ethane-2,1-diyl)) bis(3-methylbutanethioate)] | 6.00 to 7.00
19 | CCCOC(=O)[C@H](C)NP(=O)(Cc1ccc2sc(C(=O)N[C@H]3CCC[C@H]4CC[C@@H](C(=O)N5CC(c6cccnc6)C5)N4C3=O)cc2c1)OCCOC (stereo partly drawn) [Compound 438, propyl ((2-methoxyethoxy)((2-(((3S,6S,9aS)-5-oxo-3-(3-(pyridin-3-yl)azetidine-1-carbonyl)octahydro-1H-pyrrolo[1,2-a]azepin-6-yl)carbamoyl)benzo [b]thiophen-5-yl)methyl)phosphoryl)-L-alaninate] | 5.52 to 6.00
20 | CCCOC(=O)[C@H](C)NP(=O)(Oc1ccccc1)C(F)c1ccc2sc(C(=O)N[C@H]3CCC[C@H]4CC[C@@H](C(=O)N5CC(c6cccc(C#N)n6)C5)N4C3=O)cc2c1 (stereo partly drawn) [Compound 266, propyl (((2-(((3S,6S,9aS)-3-(3-(6-cyanopyridin-2-yl)azetidine-1-carbonyl)-5-oxooctahydro-1H-pyrrolo[1,2-a]azepin-6-yl)carbamoyl)benzo [b]thiophen-5-yl)fluoromethyl) (phenoxy)phosphoryl)-L-alaninate] | > 7.00
21 | CCCOC(=O)[C@H](C)N[P@@](=O)(Oc1ccccc1)[C@H](F)c1ccc2sc(C(=O)N[C@H]3CCC[C@H]4CC[C@@H](C(=O)N5CC(c6cccnc6)C5)N4C3=O)cc2c1 (single isomer, unassigned) [Compound 463] | > 7.00
